Assays:
[1] = test system: JEG-3 cells; settings: Biol. Reprod. (2007) 76: 203-10; cited from earlier work
[2] = test system: JEG-3 cells; test: [3H]-thymidine incorporation by JEG-3 cells (leptin assay in non-recombinant system); assay type: cell-based; settings: FIG. 5
Description: Leptin Assay in Non-Recombinant System The leptin receptor expression in non-recombinant system is often fluctuating and care must be given to identify a system where signal stability remains within experiments. Using such a system, leptin receptor antagonist mimetics could be identified by evaluating is their action vs. leptin (see below). Leptin is produced chiefly in adipose cells, but in humans, mRNA encoding leptin is also present in the placenta. Here, leptin might play an important proliferative role in the microvasculature. The possibility to use this hypothesis in a native cell line was evaluated. JEG-3 Protocol In JEG-3 cells (choriocarcinoma cell line) leptin is able to stimulate proliferation up to 3 fold (Biol. Reprod. (2007) 76: 203-10). […] The radioactivity incorporated by the cells is an index of their proliferative activity and is measured in counts per minute (CPM) with a liquid scintillation beta counter. This finding can be applied to test whether a compound is able to either reproduce the effect of leptin on cell proliferation (leptin receptor agonist mimetic) (i.e., a given compound will cause an increase in incorporated [^3H]-Thymidine by the cells) or to inhibit the effect of leptin (antagonistic effect) by preventing the leptin-mediated increase in [^3H]-thymidine incorporation. […]

With “leptin: a hormone synthesized in fat cells that is believed to act in the hypothalamus to reduce food intake and body weight” as the substance, how does the stimulation of proliferation [1] read?
The stimulation of proliferation was “up to 3 fold”.

What about the EC50 ([2]; JEG-3 cells (choriocarcinoma cell line), read-out: EC50, increase in [3H]-thymidine incorporation) of the same substance?
Its EC50 is 2.1 nM.

What about the “concentration of maximal effect on [3H]-thymidine incorporation” value ([2]; JEG-3 cells) of the same substance?
The value was 100 nM.

Reference: patent US20110275678A1, “New Pyridine Derivatives as Leptin Receptor Modulator Mimetics” (priority 2008, published 2011)
